Source: article PMC9180621, “Preparation of Novel Pyrazolo[4,3-e]tetrazolo[1,5-b][1,2,4]triazine Sulfonamides and Their Experimental and Computational Biological Studies” (International Journal of Molecular Sciences, 2022)

Tests used:
BxPC-3 cells [1] = experiment: MTT assay, cell viability; type: cell-based; conditions: Homo sapiens, BxPC-3, 72 h incubation, ± SD
Procedure: (§1) A statistical program (Graphpad Prism 7) was used to analyze obtained data (MTT test). The dose–response analysis was performed to estimate the inhibitory concentration (IC50) of the tested compounds. The IC50 value is defined as a concentration of the tested compound that leads to a reduction in cell pool viability by 50% compared to the negative control (accepted as 100%). % cell viability=Absorbance value of treated cells−Absorbance value of blank/Absorbance value of untreated cells−Absorbance value of blank×100%
(§2) To estimate cell viability following 72 h incubation with the tested MM-compounds (MM134, MM136, MM137, and MM139), the MTT test was used according to the PN-EN ISO 10993-5. It is a quantitative method based on the tetrazolium yellow dye MTT [3(4,5-dimethyl-2-thiazolyl)-2,5-diphenyl-2H-tetrazolium bromide], which is converted by living cells to a purple product, formazan, the concentration of which was measured colorimetrically. The MTT assay was performed according to the procedure described by Mosmann with modifications. At a density of approximately 8 × 10^3 cells per 100 µL/well, 96-well plates were seeded. Following the given incubation period in controlled conditions (37 °C; 5% CO2), cells were exposed to different concentrations of tested compounds in DMSO (range 0.05–3 µM) in a volume of 100 µL medium per well. Final solvent concentration of DMSO was < 0.5% v/v. The experimental design included vehicle controls and blanks (wells without cells).
(§3) After 72 h of incubation of cells with tested MM-compounds, 20 µL of MTT tetrazolium salt (5 mg/mL in PBS) was added to each well, and plates were incubated once again in a humidified atmosphere for 3 h (37 °C; 5% CO2). Following the incubation time, the solutions were removed and 100 µL of DMSO was added to dissolve the formazan complexes. Subsequently, a spectrophotometer (microplate reader Power Wave XS BioTek Instruments, Inc., Winooski, VT, USA) reading was performed at 570 nm. The experiments were performed in duplicates.

HCT-116 cells = experiment: MTT assay, cell viability; type: cell-based; conditions: Homo sapiens, HCT-116, 72 h incubation, ± SD
Procedure: as §1, §2, §3

L929 cells = experiment: MTT assay, cell viability; type: cell-based; conditions: L929 normal mouse fibroblasts, 72 h incubation, ± SD
Procedure: as §1, §2, §3

WI-38 cells = experiment: MTT assay, cell viability; type: cell-based; conditions: WI-38 normal human fibroblasts, 72 h incubation, ± SD
Procedure: as §1, §2, §3

PC-3 cells [2] = experiment: MTT assay, cell viability; type: cell-based, human; conditions: Homo sapiens; PC-3, 72 h incubation, MTT, ± SD
Procedure: as §1, §2, §3

BxPC-3 cells [3] = experiment: Annexin V-FITC/propidium iodide flow cytometry, apoptosis; type: cell-based, human; conditions: IC50 concentration, Annexin V-FITC, ± SD
Procedure: Data are presented as mean percentage of apoptotic cells (early and late apoptotic) ± SD values. The differences between the experimental samples and vehicle control were evaluated by the ANOVA test followed by Tukey’s test (p < 0.05). Experiments were performed in triplicate. For flow cytometry analysis with Annexin V-FITC staining, the approximate number of analyzed cells was (N = 1 × 10^4), contrasting with the dual acridine orange/ethidium bromide (AO/EB) fluorescent staining (N = 200).
The Annexin V-FITC Apoptosis Detection Kit was used to estimate the apoptosis induction following 24 and 48 h incubation with the tested MM-compounds. During apoptosis, phosphatidylserine is transformed from the inner cell membrane to the cell surface, which can be detected by the annexin-FITC complex. The addition of propidium iodide to the reaction mixture allows the assessment of cell membrane integrity. Using flow cytometry analysis, four subpopulations of cells can be distinguished: alive (non-stained), necrotic (propidium iodide stained), early apoptotic (annexin V stained cells), or late-apoptotic cells (propidium iodide and annexin V stained). BxPC-3 and PC-3 cells were seeded at appropriate density on a 6-well plate (Table 9).
The experimental design included vehicle control (final solvent concentration was < 0.5% v/v DMSO), and cells treated with 2 µM SN-38 (active metabolite of irinotecan) used as a positive compensation control. Cells were left for incubation for another 24 or 48 h (37 °C; 5% CO2). After exposure, cells were trypsinized and transferred to cytometric tubes, left for 40 min, and centrifuged at 1400 rpm for 10 min at 4 °C. Afterward, the supernatant was removed, and the precipitate was diluted in 1 mL of PBS. The rest of the procedure was performed according to the manufacturer’s instructions. The results were obtained from three independent experiments.

BxPC-3 cells [4] = experiment: Dual acridine orange/ethidium bromide (AO/EB) fluorescent staining, apoptosis; type: cell-based, human; conditions: BxPC-3, IC50 concentration, 24 h incubation
Procedure: (§4) Data are presented as mean percentage of apoptotic cells (early and late apoptotic) ± SD values. The differences between the experimental samples and vehicle control were evaluated by the ANOVA test followed by Tukey’s test (p < 0.05). Experiments were performed in triplicate. For flow cytometry analysis with Annexin V-FITC staining, the approximate number of analyzed cells was (N = 1 × 10^4), contrasting with the dual acridine orange/ethidium bromide (AO/EB) fluorescent staining (N = 200). Acridine orange/ethidium bromide (AO/EB) staining is used to detect nuclear alterations and the development of apoptotic bodies, which are both indicative of apoptosis. Acridine orange penetrates into living cells, emitting green fluorescence after intercalation into DNA. The second dye, ethidium bromide, emits red fluorescence in cells with an altered cell membrane. The cells are divided into three categories as follows: living cells (green nucleus with red orange cytoplasm); apoptotic (green irregularly nuclei with chromatin condensation or fragmentation); and necrotic cells (uniformly orange-stained cell nuclei). Programmed cell death is measured by counting the number of cells that undergo apoptosis under a fluorescent microscope. BxPC-3 and PC-3 cells were seeded at an appropriate density on 12-well plates (Table 9). […] Following the incubation period, cells were incubated with fluorochromes (AO/EB: 100 µM; 1:1, v/v) for 5 min at 37 °C in the dark. Viable, apoptotic, or necrotic cells were distinguished using this method based on differential uptake of fluorescent DNA-binding dyes (AO/EB) with the structural aspect of chromatin condensation in the stained nucleus. Cells were analyzed using a fluorescence microscope (Olympus BX60 F5 Olympus Optical Co., Ltd., Nagano, Japan) at 360 nm. The results were obtained from three independent experiments.

PC-3 cells [5] = experiment: as above; type: cell-based, human; conditions: PC-3, 48 h incubation, 2xIC50 concentration, AO/EB, ± SD; control 1.5 ± 0.7%
Procedure: as §4

BxPC-3 cells [6] = experiment: MitoTracker Red, mitochondria membrane potential; type: cell-based, human
Procedure: (§5) The fitness of the mitochondria and changes in MMP were assessed using MitoTracker Red. Data for experimental groups were presented as mean percentage of control group fluorescence intensity ± SD value (Figure 11, Table 2). Mitotracker Red is deposited in the mitochondrial matrix in response to changes in the inner transmembrane potential of the mitochondria. The intensity of fluorescence reflects the fitness of the mitochondria and alters with changes in MMP [91]. BxPC-3 and PC-3 cells were seeded at appropriate density on a 96-well plates (Table 9). […] After appropriate incubation time, cells were incubated with MitoTracker Red (0.1 µM/200 µL PBS/well) for 40 min. Afterward, MitoTracker Red solution was removed from the wells and PBS (200 µL/well) was added. Fluorescence was read at an […] of 581/644 nm using the SpectraMax® i3x Multi-Mode Detection Platform.

PC-3 cells [7] = experiment: MitoTracker Red, mitochondria membrane potential; type: cell-based, human
Procedure: as §5

IC50 (BxPC-3 cells [1]): 250 ± 80 nM | IC50 (HCT-116 cells): 250 ± 70 nM | IC50 (PC-3 cells [2]): 130 ± 10 nM
SMILES: Cc1nn(-c2ccc(S(=O)(=O)N3CCOCC3)cc2)c2nn3nnnc3nc12 [MM136]
IC50 (L929 cells): 220 ± 80 nM | IC50 (WI-38 cells): 480 ± 90 nM | mean percentage of apoptotic cells (early and late apoptotic) (BxPC-3 cells [3]; BxPC-3, 24 h incubation, control 10.3 ± 2.09%): 41.7 ± 0.17% | mean percentage of apoptotic cells (early and late apoptotic) (BxPC-3 cells [3]; BxPC-3, 48 h incubation, control 8.3 ± 1.13%): 56.33 ± 4.96% | increase in apoptotic fraction (BxPC-3 cells [4]): did not induce a significant increase | mean % of apoptotic cells (PC-3 cells [5]): 14.5 ± 0.7% | mean percentage of control group fluorescence intensity (MMP) (BxPC-3 cells [6]; BxPC-3, 24 h incubation, 0.5IC50, ± SD): 82.83 ± 13.02% | mean percentage of control group fluorescence intensity (MMP) (BxPC-3 cells [6]; BxPC-3, 24 h incubation, 2xIC50, ± SD): 57.67 ± 5.56% | mean percentage of control group fluorescence intensity (MMP) (BxPC-3 cells [6]; BxPC-3, 24 h incubation, IC50, ± SD): 65.68 ± 4.58% | mean percentage of control group fluorescence intensity (MMP) (BxPC-3 cells [6]; BxPC-3, 48 h incubation, 0.5IC50, ± SD): 69.08 ± 4.40% | mean percentage of control group fluorescence intensity (MMP) (BxPC-3 cells [6]; BxPC-3, 48 h incubation, 2xIC50, ± SD): 61.83 ± 0.46% | mean percentage of control group fluorescence intensity (MMP) (BxPC-3 cells [6]; BxPC-3, 48 h incubation, IC50, ± SD): 62.37 ± 0.05% | mean percentage of control group fluorescence intensity (MMP) (PC-3 cells [7]; PC-3, 24 h incubation, 0.5IC50, ± SD): 96.3 ± 5.74% | mean percentage of control group fluorescence intensity (MMP) (PC-3 cells [7]; PC-3, 24 h incubation, 2xIC50, ± SD): 86.9 ± 7.22% | mean percentage of control group fluorescence intensity (MMP) (PC-3 cells [7]; PC-3, 24 h incubation, IC50, ± SD): 92.78 ± 0.9% | mean percentage of control group fluorescence intensity (MMP) (PC-3 cells [7]; PC-3, 48 h incubation, 0.5IC50, ± SD): 81.34 ± 0.4% | mean percentage of control group fluorescence intensity (MMP) (PC-3 cells [7]; PC-3, 48 h incubation, 2xIC50, ± SD): 47.38 ± 2.74% | mean percentage of control group fluorescence intensity (MMP) (PC-3 cells [7]; PC-3, 48 h incubation, IC50, ± SD): 61.24 ± 3.62%
